# Measurements as given in ChEMBL document CHEMBL1201861, “Genomics of Drug Sensitity in Cancer screening data, Wellcome Trust Sanger Institute”.
# pIC50: −log10 of the molar value.
# Experiments:
# Test in all cases: cells
# [1] = system: MOLT-16; type: functional, cell-based; conditions: Homo sapiens;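 note: growth inhibition of human MOLT-16 cells, read out with a cell viability assay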
# Description: SANGER: Inhibition of human MOLT-16 cell growth in a cell viability assay.
# [2] = system: TGBC1TKB; type: functional, cell-based, Homo sapiens; conditions: Homo sapiens, TGBC1TKB;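 note: growth inhibition of TGBC1TKB cells, read out by a cell viability assay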
# Description: SANGER: Inhibition of human TGBC1TKB cell growth in a cell viability assay.
# [3] = system: SW684; type: functional, cell-based, Homo sapiens; conditions: Homo sapiens, SW684;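 note: growth inhibition of human SW684 cells, measured by a cell viability assay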
# Description: SANGER: Inhibition of human SW684 cell growth in a cell viability assay.
# [4] = system: Calu-6; type: functional, cell-based, Homo sapiens; conditions: Homo sapiens, Calu-6;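 note: growth of human Calu-6 cells, read out by a cell viability assay, IC50 marking inhibition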
# Description: SANGER: Inhibition of human Calu-6 cell growth in a cell viability assay.
# [5] = system: SW1088; type: functional, cell-based, Homo sapiens; conditions: Homo sapiens, SW1088;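 note: growth inhibition of human SW1088 cells, read out by a cell viability assay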
# Description: SANGER: Inhibition of human SW1088 cell growth in a cell viability assay.
# [6] = system: NCI-H2170; type: functional, cell-based, Homo sapiens; conditions: Homo sapiens, NCI-H2170;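 note: cell viability assay measuring growth inhibition of human NCI-H2170 cancer cells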
# Description: SANGER: Inhibition of human NCI-H2170 cell growth in a cell viability assay.
# [7] = system: NOMO-1; type: functional, cell-based; conditions: Homo sapiens;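 note: growth inhibition of human NOMO-1 cells measured by a cell viability assay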
# Description: SANGER: Inhibition of human NOMO-1 cell growth in a cell viability assay.
# [8] = system: J-RT3-T3-5; type: functional, cell-based; conditions: Homo sapiens;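 note: cell viability assay measuring growth inhibition of human J-RT3-T3-5 cells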
# Description: SANGER: Inhibition of human J-RT3-T3-5 cell growth in a cell viability assay.
# [9] = system: MZ2-MEL; type: functional, cell-based, Homo sapiens; conditions: Homo sapiens, MZ2-MEL;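 note: growth inhibition of MZ2-MEL cells read out with a cell viability assay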
# Description: SANGER: Inhibition of human MZ2-MEL cell growth in a cell viability assay.
# [10] = system: NCI-H1092; type: functional, cell-based; conditions: Homo sapiens;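 note: cell growth inhibition measured with a cell viability assay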
# Description: SANGER: Inhibition of human NCI-H1092 cell growth in a cell viability assay.
# [11] = system: MS-1; type: functional, cell-based; conditions: Homo sapiens;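 note: growth inhibition of MS-1 cells, read out by cell viability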
# Description: SANGER: Inhibition of human MS-1 cell growth in a cell viability assay.
# [12] = system: SF-539; type: functional, cell-based, Homo sapiens; conditions: Homo sapiens, SF-539;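 note: Read-out is a cell viability assay, with IC50 reflecting inhibition of cell growth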
# Description: SANGER: Inhibition of human SF539 cell growth in a cell viability assay.
# [13] = system: HT; type: functional, cell-based; conditions: Homo sapiens
# Description: SANGER: Inhibition of human HT cell growth in a cell viability assay.
# [14] = system: HSC-2; type: functional, cell-based, Homo sapiens; conditions: Homo sapiens, HSC-2;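 note: growth inhibition of human HSC-2 cells, read out by a cell viability assay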
# Description: SANGER: Inhibition of human HSC-2 cell growth in a cell viability assay.
# [15] = system: TCC-SUP; type: functional, cell-based, Homo sapiens; conditions: Homo sapiens, TCC-SUP;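 note: growth inhibition of TCC-SUP cells, read out with a cell viability assay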
# Description: SANGER: Inhibition of human TCCSUP cell growth in a cell viability assay.
# [16] = system: BT-20; type: functional, cell-based, Homo sapiens; conditions: Homo sapiens, BT-20;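 note: cell viability assay measuring suppression of growth in human BT-20 cells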
# Description: SANGER: Inhibition of human BT-20 cell growth in a cell viability assay.
# [17] = system: SAOS-2; type: functional, cell-based, Homo sapiens; conditions: Homo sapiens, SAOS-2;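 note: growth inhibition of human Saos-2 cells determined by a cell viability assay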
# Description: SANGER: Inhibition of human Saos-2 cell growth in a cell viability assay.
# [18] = system: NUGC-3; type: functional, cell-based, Homo sapiens; conditions: Homo sapiens, NUGC-3;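 note: growth inhibition of human NUGC-3 cells, read out with a cell viability assay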
# Description: SANGER: Inhibition of human NUGC-3 cell growth in a cell viability assay.
# [19] = system: OVCAR-5; type: functional, cell-based, Homo sapiens; conditions: Homo sapiens, OVCAR-5;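 note: growth inhibition of human OVCAR-5 cells, read out with a cell viability assay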
# Description: SANGER: Inhibition of human OVCAR-5 cell growth in a cell viability assay.
# [20] = system: SK-UT-1; type: functional, cell-based, Homo sapiens; conditions: Homo sapiens, SK-UT-1;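 note: growth inhibition of SK-UT-1 cells, measured by a cell viability assay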
# Description: SANGER: Inhibition of human SK-UT-1 cell growth in a cell viability assay.
# [21] = system: LXF-289 cell line; type: functional, cell-based, Homo sapiens; conditions: Homo sapiens, LXF-289
# Description: SANGER: Inhibition of human LXF-289 cell growth in a cell viability assay.
# [22] = system: SCC-15; type: functional, cell-based, Homo sapiens; conditions: Homo sapiens, SCC-15;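 note: growth inhibition of SCC-15 cells, read out with a cell viability assay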
# Description: SANGER: Inhibition of human SCC-15 cell growth in a cell viability assay.
# [23] = system: HT-144; type: functional, cell-based, Homo sapiens; conditions: Homo sapiens, HT-144
# Description: SANGER: Inhibition of human HT-144 cell growth in a cell viability assay.
# [24] = system: HPAF-II; type: functional, cell-based, Homo sapiens; conditions: Homo sapiens, HPAF-II;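 note: growth inhibition of HPAF-II cells, read out with a cell viability assay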
# Description: SANGER: Inhibition of human HPAF-II cell growth in a cell viability assay.
# [25] = system: NKM-1; type: functional, cell-based; conditions: Homo sapiens;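 note: growth inhibition of NKM-1 cells, read out with a cell viability assay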
# Description: SANGER: Inhibition of human NKM-1 cell growth in a cell viability assay.
# [26] = system: MSTO-211H; type: functional, cell-based, Homo sapiens; conditions: Homo sapiens, MSTO-211H
# Description: SANGER: Inhibition of human MSTO-211H cell growth in a cell viability assay.
# [27] = system: MHH-NB-11; type: functional, cell-based, Homo sapiens; conditions: Homo sapiens, MHH-NB-11;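 note: growth inhibition of human MHH-NB-11 cells, read out by a cell viability assay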
# Description: SANGER: Inhibition of human MHH-NB-11 cell growth in a cell viability assay.
# [28] = system: CAL-54; type: functional, cell-based, Homo sapiens; conditions: Homo sapiens, CAL-54;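 note: growth inhibition of CAL-54 cells, read out by a viability measurement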
# Description: SANGER: Inhibition of human CAL-54 cell growth in a cell viability assay.
# [29] = system: VMRC-RCZ; type: functional, cell-based; conditions: Homo sapiens;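 note: growth inhibition measured with a cell viability assay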
# Description: SANGER: Inhibition of human VMRC-RCZ cell growth in a cell viability assay.
# [30] = system: YAPC; type: functional, cell-based, Homo sapiens; conditions: Homo sapiens, YAPC;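 note: growth inhibition of YAPC cells, measured with a cell viability assay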
# Description: SANGER: Inhibition of human YAPC cell growth in a cell viability assay.
# [31] = system: RPMI-8866; type: functional, cell-based; conditions: Homo sapiens
# Description: SANGER: Inhibition of human RPMI-8866 cell growth in a cell viability assay.
# [32] = system: NCI-H650; type: functional, cell-based, Homo sapiens; conditions: Homo sapiens, NCI-H650;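 note: growth inhibition of NCI-H650 cells, read out by a viability assay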
# Description: SANGER: Inhibition of human NCI-H650 cell growth in a cell viability assay.
# [33] = system: A253 cell line; type: functional, cell-based, Homo sapiens; conditions: Homo sapiens, A253;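 note: growth inhibition of A253 cells, read out with a cell viability assay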
# Description: SANGER: Inhibition of human A253 cell growth in a cell viability assay.
# [34] = system: U-251; type: functional, cell-based, Homo sapiens; conditions: Homo sapiens, U-251;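 note: growth inhibition of human U-251 cells, read out through a cell viability assay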
# Description: SANGER: Inhibition of human U251 cell growth in a cell viability assay.
# [35] = system: JEG-3; type: functional, cell-based, Homo sapiens; conditions: Homo sapiens, JEG-3;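 note: growth inhibition of human JEG-3 cells, read out with a cell viability assay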
# Description: SANGER: Inhibition of human JEG-3 cell growth in a cell viability assay.
# [36] = system: LCLC-97TM1; type: functional, cell-based, Homo sapiens; conditions: Homo sapiens, LCLC-97TM1;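 note: cell viability assay measuring growth inhibition of human LCLC-97TM1 cells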
# Description: SANGER: Inhibition of human LCLC-97TM1 cell growth in a cell viability assay.
# [37] = system: BXPC-3; type: functional, cell-based, Homo sapiens; conditions: Homo sapiens, BXPC-3;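 note: growth inhibition of human BxPC-3 cells, read out by a cell viability assay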
# Description: SANGER: Inhibition of human BxPC-3 cell growth in a cell viability assay.
# [38] = system: FTC-133; type: functional, cell-based, Homo sapiens; conditions: Homo sapiens, FTC-133
# [39] = system: NCI-H1355; type: functional, cell-based, Homo sapiens; conditions: Homo sapiens, NCI-H1355;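 note: growth inhibition of human NCI-H1355 cells, read out by a cell viability assay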
# Description: SANGER: Inhibition of human NCI-H1355 cell growth in a cell viability assay.
# [40] = system: TE-6; type: functional, cell-based, Homo sapiens; conditions: Homo sapiens, TE-6;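 note: growth inhibition of TE-6 cells, read out with a cell viability assay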
# Description: SANGER: Inhibition of human TE-6 cell growth in a cell viability assay.
# [41] = system: BPH-1; type: functional, cell-based, Homo sapiens; conditions: Homo sapiens, BPH-1;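 note: cell viability assay measuring growth inhibition of human BPH-1 cells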
# Description: SANGER: Inhibition of human BPH-1 cell growth in a cell viability assay.
# [42] = system: ME-180; type: functional, cell-based; conditions: Homo sapiens;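 note: cell viability assay measuring growth inhibition of ME-180 cells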
# Description: SANGER: Inhibition of human ME-180 cell growth in a cell viability assay.
# [43] = system: MPP-89; type: functional, cell-based, Homo sapiens; conditions: Homo sapiens, MPP-89;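 note: growth inhibition of human MPP-89 cells, read out with a cell viability assay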
# Description: SANGER: Inhibition of human MPP-89 cell growth in a cell viability assay.
# [44] = system: MFE-280; type: functional, cell-based, Homo sapiens; conditions: Homo sapiens, MFE-280;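 note: growth inhibition of MFE-280 cells, determined with a cell viability readout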
# Description: SANGER: Inhibition of human MFE-280 cell growth in a cell viability assay.
# [45] = system: KYSE-180; type: functional, cell-based, Homo sapiens; conditions: Homo sapiens, KYSE-180;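 note: growth inhibition of KYSE-180 cells, read out with a cell viability assay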
# Description: SANGER: Inhibition of human KYSE-180 cell growth in a cell viability assay.
# [46] = system: TE-5; type: functional, cell-based, Homo sapiens; conditions: Homo sapiens, TE-5;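 note: inhibition of cell growth, read out by a cell viability assay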
# Description: SANGER: Inhibition of human TE-5 cell growth in a cell viability assay.
# [47] = system: CAPAN-1; type: functional, cell-based, Homo sapiens; conditions: Homo sapiens, CAPAN-1;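 note: growth suppression of CAPAN-1 cells, read out by a cell viability assay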
# Description: SANGER: Inhibition of human CAPAN-1 cell growth in a cell viability assay.
# [48] = system: NCI-H1838; type: functional, cell-based, Homo sapiens; conditions: Homo sapiens, NCI-H1838;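 note: growth inhibition of NCI-H1838 cells, determined with a cell viability readout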
# Description: SANGER: Inhibition of human NCI-H1838 cell growth in a cell viability assay.
# [49] = system: SCH; type: functional, cell-based, Homo sapiens; conditions: Homo sapiens, SCH;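 note: growth inhibition of human SCH cells, read out in a cell viability assay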
# Description: SANGER: Inhibition of human SCH cell growth in a cell viability assay.
# [50] = system: 769-P; type: functional, cell-based, Homo sapiens; conditions: Homo sapiens, 769-P
# Description: SANGER: Inhibition of human 769-P cell growth in a cell viability assay.
# [51] = system: CP50-MEL-B; type: functional, cell-based, Homo sapiens; conditions: Homo sapiens, CP50-MEL-B;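 note: growth inhibition of the human cell line, measured with a cell viability read-out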
# Description: SANGER: Inhibition of human CP50-MEL-B cell growth in a cell viability assay.
smiles,measurement,setting,value
CN(c1ncccc1CNc1nc(Nc2ccc3c(c2)CC(=O)N3)ncc1C(F)(F)F)S(C)(=O)=O [PF-00562271],pIC50,[1],< 5.59
same,pIC50,[2],< 5.59
same,pIC50,[3],< 5.59
same,pIC50,[4],< 5.59
same,pIC50,[5],< 5.59
same,pIC50,[6],< 5.59
same,pIC50,[7],< 5.59
same,pIC50,[8],< 5.59
same,pIC50,[9],< 5.59
same,pIC50,[10],< 5.59
same,pIC50,[11],< 5.59
same,pIC50,[12],< 5.59
same,pIC50,[13],< 5.59
same,pIC50,[14],5.81
same,pIC50,[15],< 5.59
same,pIC50,[16],< 5.59
same,pIC50,[17],< 5.59
same,pIC50,[18],< 5.59
same,pIC50,[19],< 5.59
same,pIC50,[20],5.84
same,pIC50,[21],< 5.59
same,pIC50,[22],< 5.59
same,pIC50,[23],< 5.59
same,pIC50,[24],< 5.59
same,pIC50,[25],5.89
same,pIC50,[26],< 5.59
same,pIC50,[27],5.67
same,pIC50,[28],< 5.59
same,pIC50,[29],< 5.59
same,pIC50,[30],< 5.59
same,pIC50,[31],< 5.59
same,pIC50,[32],6.08
same,pIC50,[33],< 5.59
same,pIC50,[34],5.76
same,pIC50,[35],< 5.59
same,pIC50,[36],< 5.59
same,pIC50,[37],5.63
same,pIC50,[38],< 5.59
same,pIC50,[39],< 5.59
same,pIC50,[40],< 5.59
same,pIC50,[41],5.89
same,pIC50,[42],< 5.59
same,pIC50,[43],< 5.59
same,pIC50,[44],< 5.59
same,pIC50,[45],5.64
same,pIC50,[46],< 5.59
same,pIC50,[47],< 5.59
same,pIC50,[48],< 5.59
same,pIC50,[49],< 5.59
same,pIC50,[50],< 5.59
same,pIC50,[51],< 5.59
C=CCNC1=C2C[C@@H](C)C[C@H](OC)[C@H](O)[C@@H](C)/C=C(\C)[C@H](OC(N)=O)[C@@H](OC)/C=C\C=C(/C)C(=O)NC(=CC1=O)C2=O [TANESPIMYCIN],pIC50,[1],< 6.00
same,pIC50,[2],7.09
same,pIC50,[3],7.18
same,pIC50,[4],< 6.00
same,pIC50,[5],6.78
same,pIC50,[6],6.76
same,pIC50,[7],< 6.00
same,pIC50,[8],< 6.00
same,pIC50,[9],7.18
same,pIC50,[10],< 6.00
same,pIC50,[11],< 6.00
same,pIC50,[12],7.18
same,pIC50,[13],< 6.00
same,pIC50,[14],6.47
same,pIC50,[15],7.22
same,pIC50,[16],< 6.00
same,pIC50,[17],6.06
same,pIC50,[18],6.84
same,pIC50,[19],7.46
same,pIC50,[20],7.50
same,pIC50,[21],8.38
same,pIC50,[22],< 6.00
same,pIC50,[23],7.51
same,pIC50,[24],6.67
same,pIC50,[25],6.97
same,pIC50,[26],6.25
same,pIC50,[27],< 6.00
same,pIC50,[28],< 6.00
same,pIC50,[29],6.86
same,pIC50,[30],6.35
same,pIC50,[31],< 6.00
same,pIC50,[32],6.75
same,pIC50,[33],< 6.00
same,pIC50,[34],6.98
same,pIC50,[35],6.73
same,pIC50,[36],7.06
same,pIC50,[37],6.80
same,pIC50,[38],6.78
same,pIC50,[39],6.55
same,pIC50,[40],6.59
same,pIC50,[41],6.87
same,pIC50,[42],7.54
same,pIC50,[43],6.85
same,pIC50,[44],6.67
same,pIC50,[45],7.03
same,pIC50,[46],< 6.00
same,pIC50,[47],6.61
same,pIC50,[48],< 6.00
same,pIC50,[49],< 6.00
same,pIC50,[50],6.67
same,pIC50,[51],7.46
